Source: a melting point compilation (Tetko et al.)

melting point	SMILES
180 to 182 °C	O=C(O)Cn1nnc(-c2ccccc2)n1
227 to 229 °C	Cc1ccc(F)c2c1NC(=O)C2=O
171 to 173 °C	COc1ccc(C)cc1N1CC(C(=O)O)CC1=O (configuration not stated)
111 to 113 °C	Cc1ccnc(N)c1N
174 to 176 °C	Nc1ccccc1C(=O)NC1CCCC1
199 to 201 °C	Nc1cc(Cl)c(Cl)c(C(=O)O)c1
119 to 121 °C	O=C1CCCc2sccc2N1
103 to 105 °C	N#CCc1c[nH]c2ccc(Br)cc12
155 to 157 °C	Clc1cc2nnc(-c3ccccc3)n2cn1
135 to 137 °C	O=C(O)Cc1cn(-c2ccccc2)nc1-c1ccc(Br)cc1
240 to 242 °C	Cn1c(CC(N)=NO)nc2ccccc21
216 to 218 °C	O=C(CCn1ccnc1)Nc1cccc(C(=O)O)c1
249 to 251 °C	Cc1cc(C)c2c(=O)[nH][nH]c2n1
110 to 112 °C	Cc1nn(-c2ccccc2)c(C)c1CC(=O)O
243 to 245 °C	Cc1ccc2[nH]cc(C(=O)C(F)(F)F)c2c1
194 to 196 °C	Nc1nc(CN2CCN(c3ccc(F)cc3)CC2)cs1
111 to 113 °C	CNS(=O)(=O)c1ccc(CN)cc1
167 to 169 °C	CC(C)(C)OC(=O)NC1CN(c2ccccc2)C1=O (configuration not stated)
124 to 126 °C	O=C1CCc2ccccc2CN1
110 to 112 °C	NC1CCN(c2ccc(F)c(Cl)c2)C1=O (configuration not stated)
243 to 245 °C	Cc1sc2nc(CCCC(=O)O)[nH]c(=O)c2c1C
124 to 126 °C	CC(C)(C)OC(=O)N1CCC(OC(=O)c2cccc(N)c2)CC1
161 to 163 °C	O=C(O)CCc1c(-c2ccccc2)[nH]c2ccc(F)cc12
174 to 176 °C	O=C1CCC(C(=O)O)CN1 (configuration not stated)

melting point	SMILES
34 to 36 °C	OCc1cnns1
181 to 183 °C	O=C(O)CCC(=O)N1CC(=O)Nc2ccccc21
151 to 153 °C	CCc1cc(N)c2cc(N)ccc2n1
87 to 89 °C	CC(=O)NCCc1ccc(S(=O)(=O)Cl)s1
45 to 47 °C	N#Cc1ccc(C2OCCO2)cc1
239 to 241 °C	Cc1nc(COc2ccc(Cl)cc2)sc1C(=O)O
135 to 137 °C	COc1cccc(Nc2ccccc2C(=O)O)c1
64 to 66 °C	N#Cc1cc(F)ccc1S(=O)(=O)Cl
172 to 174 °C	Cc1nsc(Nc2ccccc2)c1C#N
195 to 197 °C	CC(C)C(C(=O)O)N1CCN(C)CC1 (configuration not stated)
229 to 231 °C	CS(=O)(=O)c1ccc2c(c1)NC(=O)CO2
243 to 245 °C	NC(=S)/C(=C/c1ccccc1O)C(=O)O
66 to 68 °C	COc1ccc(N2CCC(=O)CC2)cc1
75 to 77 °C	CN(c1ccc(C(=O)CCl)cc1)S(C)(=O)=O
105 to 107 °C	NNS(=O)(=O)c1ccc(OC(F)(F)F)cc1
174 to 176 °C	CC(CO)Nc1nc2ccccc2[nH]1 (configuration not stated)
167 to 169 °C	COc1cc(-c2ccccc2)sc1C(=O)O
126 to 128 °C	Cc1cc(Sc2ncccn2)ccc1N
108 to 110 °C	CC1CCN(S(=O)(=O)c2ccc(N)cc2)CC1
47 to 49 °C	Fc1cc(Br)c(F)cc1S
129 to 131 °C	Cc1nc2ccc(C#N)cc2s1
198 to 200 °C	Nc1nnc(C2Cc3ccccc3O2)o1 (configuration not stated)
141 to 143 °C	COc1ccc2c(c1)CCC(=O)N2
186 to 188 °C	Cc1nc2ccccc2c(C)c1C(=O)O

melting point	SMILES
182 to 184 °C	O=C(O)c1ccc(CN2CCc3ccccc32)cc1
146 to 150 °C	Nc1ccc(S(=O)(=O)Nc2ccc(Cl)cc2)cc1N
209 to 211 °C	Cc1ccc(F)cc1Nc1ncc(C(=O)O)cc1Cl
274 to 276 °C	O=C(O)c1ccc(-n2cncn2)c([N+](=O)[O-])c1
95 to 97 °C	COC(=O)Nc1cccc(O)c1
169 to 171 °C	CN(C)c1ccc(C(N)=NO)cc1
82 to 84 °C	O=C(O)c1cccc(C2CCCOC2)c1 (configuration not stated)
161 to 163 °C	COC(=O)C=Cc1ccc([N+](=O)[O-])cc1
142 to 144 °C	Cn1c(Cl)cnc1CC(N)=S
39 to 41 °C	CC(=O)CC(=O)c1cccc(Cl)c1
114 to 116 °C	Cn1ncc(Br)c(Br)c1=O
119 to 121 °C	CCOC(=O)c1cc(Br)cc(S(N)(=O)=O)c1
57 to 59 °C	Fc1ccc(COc2ccc(CCl)cc2)cc1
263 to 265 °C	CCn1c(CCC(=O)O)nc2cc(S(N)(=O)=O)ccc21
176 to 180 °C	Nc1nc(-c2ccc3c(c2)OCO3)cs1
116 to 118 °C	CCC(C)n1ncc(C(=O)O)c1C1CC1 (configuration not stated)
111 to 113 °C	CNC(c1cccnc1)c1ccc(Cl)cc1Cl (configuration not stated)
199 to 201 °C	N#Cc1cccc(C(=O)NNC(=O)CCl)c1
160 to 162 °C	Nc1cc2c(cc1C(=O)O)OCCCO2
189 to 191 °C	O=C(O)C(=Cc1cccnc1)NC(=O)c1ccccc1
89 to 91 °C	CC(C)(C)OC(=O)Nc1cccc2c1OCO2
199 to 201 °C	O=C(O)c1ccc(-c2cnccn2)cn1
52 to 54 °C	CN(CC12CC3CC(CC(C3)C1)C2)C(=O)CCl
94 to 96 °C	CN1CCN(C(N)=O)C(c2ccccc2)C1 (configuration not stated)

melting point	SMILES
141 to 143 °C	NCc1ccc(-c2ccn[nH]2)cc1
221 to 223 °C	Cc1cc2n(n1)CCC(=O)N2
174 to 176 °C	CCOC(=O)c1ccc(N2C(=O)Cc3ccccc3C2=O)cc1
189 to 191 °C	O=C(O)c1ccc(S(=O)(=O)CCO)cc1
135 to 137 °C	Cc1ccc(-n2nc(C)c(C=O)c2Cl)cc1
80 to 82 °C	Cc1ccc(S(=O)(=O)OC2CCS(=O)(=O)C2)cc1 (configuration not stated)
89 to 91 °C	COC(=O)c1cc(-c2cccs2)ccc1N
44 to 46 °C	Nc1c(F)cc(Cl)cc1F
143 to 145 °C	CNc1cc(Cl)nc(C)n1
227 to 229 °C	CS(=O)(=O)Nc1ccc(C(=O)O)c(O)c1
153 to 155 °C	O=[N+]([O-])c1cc(S(=O)(=O)N2CCOCC2)ccc1Cl
34 to 36 °C	Fc1ncccc1OCc1ccccc1
102 to 104 °C	Nc1cc(N2CCCS2(=O)=O)ccc1F
209 to 211 °C	Cn1cc(C(=O)O)c(Cl)n1
120 to 122 °C	CC(=O)c1ccc(N(C)C)cc1O
232 to 236 °C	O=C(O)c1c[nH]c(=O)[nH]1
121 to 123 °C	CS(=O)(=O)c1ccc(Cl)c([N+](=O)[O-])c1
165 to 167 °C	Sc1nnc(N2CCCCC2)s1
104 to 106 °C	CC(C)(C)OC(=O)NCc1cn[nH]c1
211 to 213 °C	CCn1cnnc1-c1ccc(C(=O)O)cc1
140 to 142 °C	CC(C)(C)OC(=O)N1CC(=CC(=O)O)C1
200 to 202 °C	Cc1n[nH]c(-c2ccc(Cl)c(Cl)c2)n1
169 to 171 °C	Cc1nc(-c2ccccc2)c(N)s1
188 to 190 °C	O=C(CCl)N1CCc2[nH]c3ccccc3c2C1

melting point	SMILES
157 to 159 °C	O=S(=O)(NC1CCNCC1)c1ccccc1
167 to 169 °C	NC(CC(=O)NC1CCCCC1)=NO
210 to 212 °C	CS(=O)(=O)c1cc(C(=O)O)c(Cl)cc1Cl
176 to 178 °C	CC(C)(C)OC(=O)NC1(C(=O)O)CCOC(C)(C)C1 (configuration not stated)
59 to 61 °C	CC(=O)N1CCCc2cc(Br)ccc21
61 to 63 °C	Oc1ccccc1CNC1CCCCC1
188 to 190 °C	Cc1cccc2c(CC(=O)O)c[nH]c12
137 to 139 °C	O=C(O)COc1ccc(C2SCCS2)cc1
90 to 92 °C	Nc1cc2c(cc1Cl)OCO2
100 to 102 °C	NC(=O)c1ccc(C=O)cc1
139 to 141 °C	Nc1ccc(NC(=O)c2ccccc2)nc1
79 to 81 °C	CN(C)C(=N)CC#N
43 to 45 °C	Cc1cc([N+](=O)[O-])c(Cl)cc1F
83 to 85 °C	CCCN1CCCC1C(=O)O (configuration not stated)
82 to 84 °C	O=C(O)CC(Cc1ccccc1)Cc1ccccc1
269 to 271 °C	O=C(O)c1cc(-c2ccco2)nc2onc(-c3ccco3)c12
157 to 159 °C	CCOc1cc(C(N)=NO)cc(Br)c1O
185 to 187 °C	CN(C)S(=O)(=O)c1ccc(C(=O)O)cc1Br
257 to 259 °C	N#Cc1c(N)nc2sc(C(=O)Nc3ccc(Br)cc3)c(N)c2c1-c1ccco1
163 to 165 °C	Cc1ccnc(S(N)(=O)=O)c1
52 to 54 °C	CCn1ccnc(Cl)c1=O
49 to 51 °C	NCc1cnn(-c2ccc(F)cc2F)c1
159 to 161 °C	O=C(O)c1cn(-c2cccc([N+](=O)[O-])c2)nn1
91 to 93 °C	CCOC(=O)c1ccc2c(c1)nc(CCl)n2CC

melting point	SMILES
183 to 185 °C	O=C(O)c1ccccc1Sc1ccc(Br)cn1
173 to 175 °C	Nc1cccc(C=CC(=O)O)c1
194 to 196 °C	O=C(O)c1cc(S(=O)(=O)N2CCCC2)ccc1Cl
132 to 134 °C	CN(C)S(=O)(=O)c1cn[nH]c1
96 to 98 °C	CC(CC(=O)c1cccc(F)c1)C(=O)O (configuration not stated)
99 to 101 °C	CCC(C)(C)c1ccc(OCCCC(=O)O)c(C(C)(C)CC)c1
87 to 89 °C	O=C(O)CC1CCS(=O)(=O)C1 (configuration not stated)
279 to 281 °C	CC(C)c1noc2nc(-c3cccnc3)cc(C(=O)O)c12
99 to 101 °C	O=C(NC1CCCCCC1)c1ccco1
151 to 153 °C	O=C(O)COc1cc(F)ccc1F
115 to 117 °C	O=S1(=O)CCCN1c1ccccc1Br
86 to 88 °C	Cc1ccc(-c2nnc(C(C)Cl)o2)cc1C (configuration not stated)
39 to 41 °C	O=C(CC(F)(F)F)c1ccc(Cl)cc1
259 to 261 °C	O=C1Nc2cc(Br)ccc2C1=O
139 to 141 °C	Cc1cc(C(=O)CCl)c(C)n1-c1ccc(Cl)c(C(F)(F)F)c1
206 to 208 °C	Cc1ccc(-c2nnc(N)[nH]2)cc1
133 to 135 °C	O=C(O)C(Oc1ccc(F)cc1Br)c1ccccc1 (configuration not stated)
70 to 72 °C	Cc1cc(Cl)nc(-c2cccnc2)n1
101 to 104 °C	N#Cc1ccc(N=C=O)cc1

SMILES	melting point
CCOc1ccccc1NC1=NCCS1	55 to 57 °C
CC(=O)c1ccc(N2CCNCC2)c(F)c1	104 to 106 °C
c1ccc2cc(CN3CCNCC3)ccc2c1	53 to 55 °C
